Source: patent US20180110837A1, “METHODS AND ASSAYS RELATING TO MACROPHAGE DIFFERENTIATION” (THE BRIGHAM AND WOMEN'S HOSPITAL, INC., priority 2012, published 2018)
“Also recorded” adds a separate entry of the source.

Key:
CNV lesions [1] = assay: laser-induced CNV in rats, intravitreal ROCK inhibition; type: in vivo, Brown Norway rats
Text: (§1) To induce CNV, C57BL/6 mice were anesthetized and pupils were dilated with 5% phenylephrine and 0.8% tropicamide. Using a 532-nm laser (Oculight GLx, Iridex), a slit-lamp delivery system, and a cover glass as a contact lens, four spots (100 mW, 50 μm, 100 ms) were placed in each eye. The lesions were located at 3, 6, 9 and 12 o'clock, meridians centered on the optic nerve head and located 2 to 3 disk diameter from the optic nerve head. The same technique was used to induce CNV in Brown Norway rats (four spots, 150 mW, 100m, 100 ms) 53,54 and cynomolgus monkeys (700 mW, 100m, 100 ms) 29. Development of a bubble under laser radiation confirmed the rupture of the Bruch's membrane. Eyes showing hemorrhage were excluded from experiments.
Seven or fourteen days after laser injury, the size of CNV lesions was measured in choroidal flat mounts. Briefly, mice were anesthetized and perfused through the left ventricle with PBS, followed by 5 ml of 5% fluorescein isothiocyanate-dextran (FD2000S; Sigma Aldrich) in 1% gelatin. The anterior segment and retina were removed from the eyecup. […] The volume of the lesions was quantified, using confocal microscopy (Leica TCS SP2 laser scanning confocal microscope). The magnitude of the CNV lesions was determined by measuring the hyperfluorescent area with Openlab Software (Improvision). The grade of leakage was determined by Fluorescein angiography (FA). […]

CNV lesions [2] = assay: laser-induced CNV in cynomolgus monkeys, intravitreal fasudil; type: in vivo, cynomolgus monkey
Procedure: Eyes from cynomolgus monkeys between 3 and 4 years of age were used in this study. Cynomolgus monkeys were restrained in a squeeze cage and injected intramuscularly in the thigh with 20 mg/kg of ketamine hydrochloride (Sankyo Yell Pharmaceutical Products Co) for general anesthesia.
Paraffin embedded sections of human eyes were deparaffinized and rehydrated with a graded alcohol series. Immunofluorescent staining was performed with antibodies (Abs) against human von Willebrandt factor (F3520, Sigma), human MMR (CD206, MAB2534, R&D Systems), human CD80 (ab53003 Abcam) or human ROCK1 (sc-17794, Santa Cruz Biotechnology) or ROCK2 (sc-1851, Santa Cruz Biotechnology) and identified with Alexa Fluor 488 (10 μg/ml, A-11055; Invitrogen) or 647 (10 μg/ml, A21244; Invitrogen) secondary Abs. On day 3 after laser injury, 10 μm frozen sections of the posterior segment were prepared. The mouse eye sections were incubated with a rat anti-mouse F4/80 mAb (MCA497R, AbD Serotec) or CD11b (550282, BD Pharmingen), and subsequently with the secondary Ab. In monkey eyes, CD68 (goat polyclonal antibody, sc-7082, Santa Cruz), vWF (rabbit polyclonal antibody, A0082, DAKO), ROCK1 (mouse monoclonal antibody, sc-17794, Santa Cruz) and ROCK2 (goat polyclonal antibody, sc-1851, Santa Cruz) were stained. Images were obtained with a Leica microscope.
To induce CNV, C57BL/6 mice were anesthetized and pupils were dilated with 5% phenylephrine and 0.8% tropicamide. Using a 532-nm laser (Oculight GLx, Iridex), a slit-lamp delivery system, and a cover glass as a contact lens, four spots (100 mW, 50 μm, 100 ms) were placed in each eye. The lesions were located at 3, 6, 9 and 12 o'clock, meridians centered on the optic nerve head and located 2 to 3 disk diameter from the optic nerve head. […]
FA was performed in anesthetized Brown Norway rats from ROCK inhibitor or vehicle treated groups, using a digital fundus camera (SLO; HRA2; Heidelberg Engineering), 7 and 14 days after laser injury. […] FA images were evaluated by two masked retina specialists. […]

[3] = electroretinography (ERG) after intravitreal injection; type: in vivo, Brown Norway rats; details: rats, intravitreal injections on days 0, 3 and 6
Procedure: On day 13, rats were dark-adapted overnight and then anesthetized. Pupils were dilated using 1% tropicamide. Methods for recording dark- and light-adapted ERGs were performed as previously described 55.

MLCK = details: read-out: Ki MLCK; cited from earlier work
ROCK1 [4] = target: T1, ROCK1 (Homo sapiens, UniProt Q13464); assay: ROCK1 enzymatic activity, [γ33P]ATP / S6 kinase substrate radiometric assay (FIG. 7A); type: biochemical; details: FIG. 7B; ROCK1 versus ROCK2
T1 construct: recombinant ROCK1 and ROCK2 enzymes containing the truncated catalytic domains (PV3691 and PV3759) were purchased from Invitrogen; purchased Invitrogen PV3691

all tested kinases = details: scale of 0 to 1; over 175 inhibitors; cited from earlier work
protein kinase A and C = details: cited from earlier work
CNV lesions [5] = assay: laser-induced CNV in mice, lesion size in choroidal flat mounts; type: in vivo, mouse; details: for CNV lesions on day 14: treatment from day 1 or from day 7 after laser injury
Text: as §1
Seven or fourteen days after laser injury, the size of CNV lesions was measured in choroidal flat mounts. Briefly, mice were anesthetized and perfused through the left ventricle with PBS, followed by 5 ml of 5% fluorescein isothiocyanate-dextran (FD2000S; Sigma Aldrich) in 1% gelatin. The anterior segment and retina were removed from the eyecup. The remaining retinal pigment epithelium (RPE)-choroidsclera complex was flat mounted, after relaxing radial incisions, using Mounting Medium (FM 100119, Thermo Scientific) and coverslips. Micrographs of the choroidal complex were taken with a Leica Microscope. The volume of the lesions was quantified, using confocal microscopy (Leica TCS SP2 laser scanning confocal microscope). The magnitude of the CNV lesions was determined by measuring the hyperfluorescent area with Openlab Software (Improvision). The grade of leakage was determined by Fluorescein angiography (FA).
The control animals received equivalent amounts of vehicle, glyceryl trioctanoate (91039, Sigma-Aldrich).

HUVEC cells = assay: cytoskeletal staining (F-actin, paxillin) of HUVEC cells; type: cell-based; details: versus vehicle treated controls
Text: FIG. 11A depicts HUVEC cells stained for the cytoskeletal proteins F-actin and paxillin. […] Scale bar, 20 μm. FIG. 11B depicts Western analysis of HUVECs transfected with siRNA targeting of ROCK1, ROCK2, or both. Negative control, a scramble 20-mer RNA. BlockIt (Invitrogen), a fluorescently labeled RNA to track uptake/transfection efficiency.

ROCK1 [6] = target: T1, ROCK1; details: at concentrations up to 10 μM; cited from earlier work
[7] = in vivo; cited from earlier work
[8] = tested on: vascular leakage of CNV lesions; assay: leakage from angiogenic vessels by fluorescein angiography after laser injury; type: in vivo, mice
Procedure: FA was performed in anesthetized Brown Norway rats from ROCK inhibitor or vehicle treated groups, using a digital fundus camera (SLO; HRA2; Heidelberg Engineering), 7 and 14 days after laser injury. Fluorescein injections were performed intravenously (0.2 ml of 2% fluorescein; Akorn, NDC 17478-253-10). Monkeys were injected with 5% fluorescein intravenously (Fluorescite, Alcon). FA images were evaluated by two masked retina specialists. The grading criteria were as follows: Grade-0, no hyperfluorescence; Grade-I, hyperfluorescence without leakage; Grade-IIA, hyperfluorescence in the early or mid-transit images and late leakage; Grade-IIB, bright hyperfluorescence in the transit images and late leakage beyond the treated areas. The Grade-IIB lesions were considered as clinically significant, as described previously 53. […] The control animals received equivalent amounts of vehicle, glyceryl trioctanoate (91039, Sigma-Aldrich).

[9] = tested on: CD11b/CD206 infiltrating cells in CNV; assay: FACS analysis of infiltrating cells from CNV eyes; type: in vivo, mouse
Procedure: To examine macrophages in the retina and choroid, cells were prepared from mouse eyes. To collect a sufficient number of ocular infiltrating cells, 50 burns were delivered to mouse eyes by laser. After laser injury, eyes were enucleated at different time points (1, 2, 3, 5, and 7 days). The anterior segment (cornea, iris, and lens) was excised and the posterior segment of the eye including sclera, choroid, and retina was disrupted with scissors and then shaken in DMEM (plus 10% FBS (Gibco Laboratories), 100 U/ml penicillin, 100 μg/ml streptomycin) supplemented with 0.5 mg/ml Collagenase type D (11 088 874 103, Boehringer Mannheim) at 37° C. for 60 min. The supernatants were collected and passed through a mesh. After 3 washes, viable cells were obtained. A total of 12 eyes (6 individual pools) were examined per group. The cells were stained with PE anti-mouse CD11b (557397, BD Pharmingen), FITC antimouse CD206 (MMR, 123005; BioLegend) and PE-Cy5 anti-mouse CD80 Abs (15-0801-81, eBioscience). RAW 264.7 cells were stained with PerCP anti-mouse CD11b (101230, BioLegend), PerCP anti-mouse F4/80 (123006, BioLegend), PE anti-mouse CD80 (12-0801, eBioscience), FITC anti-mouse CD206 (141704, BioLegend). […] The control animals received equivalent amounts of vehicle, glyceryl trioctanoate (91039, Sigma-Aldrich).

[10] = monkeys, intravitreal injections
[11] = systemic treatment after laser injury
[12] = IL-4, IL-10 and IL-13 injected eyes, in addition ROCK2 inhibitor treated
[13] = M1-cytokine cocktail injected eyes, in addition ROCK2 inhibitor treated

T1 sequence (Q13464 76-338 limits assumed): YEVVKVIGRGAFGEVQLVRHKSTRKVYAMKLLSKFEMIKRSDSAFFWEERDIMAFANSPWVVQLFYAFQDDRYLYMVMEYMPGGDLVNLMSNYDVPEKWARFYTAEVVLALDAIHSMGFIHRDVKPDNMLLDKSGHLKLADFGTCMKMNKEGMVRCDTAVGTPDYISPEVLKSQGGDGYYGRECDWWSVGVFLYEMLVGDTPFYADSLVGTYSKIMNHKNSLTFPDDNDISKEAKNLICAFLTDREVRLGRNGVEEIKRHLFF

## Cl.O=S(=O)(c1cccc2cnccc12)N1CCCNCC1 [fasudil, 5-(1,4-diazepan-1-ylsulfonyl)isoquinoline hydrochloride]
CNV lesions [1]
  CNV size (day 7): reduces CNV
CNV lesions [2]; monkey eyes, intravitreal injection
  macrophage infiltration into CNV lesions: significantly reduced
CNV lesions [2]; [10]
  CNV membrane thickness: significantly reduced
  percentage of the clinically relevant 2B leakages: significantly reduced
[3]
  changes in the electroretinogram (ERG): does not cause functional ERG changes
MLCK
  Ki: 36 µM
ROCK1 [4]
  inhibitory activities against ROCK1 and ROCK2 compared: equipotent
All tested kinases
  gini score: 0.63
Protein kinase A and C
  effect on protein kinase A and C: affect
CNV lesions [5]; pan ROCK inhibition, rodents
  reduction of CNV lesions compared to control: ~60%
CNV lesions [5]; [11]
  CNV size: significantly smaller
CNV lesions [5]
  CNV lesions on day 14: CNV reduction
HUVEC cells
  paxillin distribution: concentrated in the nuclear or immediate perinuclear regions

## CC(C)NC(=O)COc1cccc(-c2nc(Nc3ccc4[nH]ncc4c3)c3ccccc3n2)c1 [SLx-2119]
CNV lesions [1]
  CNV size (day 7): reduces CNV
ROCK1 [6]
  ROCK1 enzymatic activity: did not affect
[3]
  changes in the electroretinogram (ERG): does not cause functional ERG changes
[7]
  phase I clinical (toxicity) trial: successfully completed
[8]; [12]
  percentage of clinically relevant 2B leakage: reduced to control levels
[8]; [13]
  leakage: remained unaffected
[8]; fluorescein angiography
  leakage / percentage of the clinically relevant 2B leakages: significantly decreased
CNV lesions [5]; [12]
  CNV size: reduced to control levels
CNV lesions [5]; [13]
  CNV: remained unaffected
CNV lesions [5]; adiponectin−/− mice
  CNV size in adiponectin−/− mice: lack of function
CNV lesions [5]; intraperitoneal
  dose at which maximum efficacy was reached: 10 mg/kg
CNV lesions [5]; intraperitoneal, dose of 1 mg/kg
  reduction of CNV: 66%
CNV lesions [5]; [11]
  CNV size: significantly decreased
CNV lesions [5]; systemic treatment after laser injury, listed as selective ROCK2 inhibitor
  CNV size: significantly reduced
CNV lesions [5]; listed as ROCK2 inhibitor
  CNV lesions on day 14: reduced; also recorded: CNV reduction
HUVEC cells
  paxillin distribution: comparable to the control cells
[9]
  MaDAMs: significantly decreased

## C[C@@H](N)[C@H]1CC[C@H](C(=O)Nc2ccncc2)CC1 [Y-27632, (R)-(+)-trans-N-(4-pyridyl)-4-(1-aminoethyl)-cyclohexanecarboxamide]
ROCK1 [4]
  inhibitory activities against ROCK1 and ROCK2 compared: equipotent
Protein kinase A and C
  effect on protein kinase A and C: affect
HUVEC cells
  paxillin distribution: concentrated in the nuclear or immediate perinuclear regions
